The target in assay [1] is Cathepsin B (Homo sapiens, UniProt P07858). Description: Inhibition of cathepsin B.
The next assay relates to B16-F10. Description: Cytotoxicity against mouse B16F10 cells by MTT assay. The assay is classed as functional.
Assay [2] deals with Cathepsin B (Mus musculus, UniProt P10605). The assay can be described thus: Inhibition of cathepsin B in mouse B16F10 cells. The assay is classed as cell-based, B16-F10.

The values that follow come from ChEMBL document CHEMBL1141634, “Cathepsin B inhibitory activities of phthalates isolated from a marine Pseudomonas strain” (Bioorg Med Chem Lett, 2008).

pIC50: −log10 of the molar value.

As a reminder, the pIC50 is the negative decadic logarithm of the IC50, by convention in mol/L. Read a high pIC50 as a small IC50.

Sequence of Cathepsin B (Mus musculus, UniProt P10605) (P10605 whole entry): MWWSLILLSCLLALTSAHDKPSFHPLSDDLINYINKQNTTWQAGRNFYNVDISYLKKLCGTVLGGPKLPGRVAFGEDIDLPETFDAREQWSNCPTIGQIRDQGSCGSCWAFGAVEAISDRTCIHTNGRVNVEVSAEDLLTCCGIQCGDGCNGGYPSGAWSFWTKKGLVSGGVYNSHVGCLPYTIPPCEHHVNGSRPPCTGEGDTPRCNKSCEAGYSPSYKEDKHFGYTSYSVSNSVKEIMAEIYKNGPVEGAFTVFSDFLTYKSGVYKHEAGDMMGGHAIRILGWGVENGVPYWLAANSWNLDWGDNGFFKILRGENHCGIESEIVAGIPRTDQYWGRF

Consider `CCCCOC(=O)c1ccccc1C(=O)OCCCC` [DIBUTYL PHTHALATE], for which the pIC50 was 3.38 at Cathepsin B [1] and 3.64 on Cathepsin B [2]. For the same molecule, the Activity with B16-F10 is recorded as 9.45%.
Consider `CCCC[C@@H](CC)COC(=O)c1ccccc1C(=O)OC[C@@H](CC)CCCC` [BIS(2-ETHYLHEXYL)PHTHALATE], for which the pIC50 against Cathepsin B [1] is 3.42; against Cathepsin B [2] it was 3.85. In addition, the Activity with B16-F10 was 7.34%.
